Compound: CN1CCN(CC1)C2=CC(=C(C=C2)NC3=NC(=C(S3)C(=O)C4=C(C=CC=C4Cl)Cl)N)OC [XMD14-99] + COc1cc2c(Oc3ccc(NC(=O)C4(C(=O)Nc5ccc(F)cc5)CC4)cc3F)ccnc2cc1OCCCN1CCOCC1 [Foretinib] (partner 0.25 µM)
Experiment: relative viability (nuclei count vs DMSO), 5 days (fraction); higher = more cells survive
Conditions: first compound 8 µM
Method in brief: (§1)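 Lung cancer cell lines were seeded in 1536-well plates and dosed by pin tool the next day, with either a single drug or a fixed anchor-drug dose combined with five library-drug doses (not always all listed) spaced in √10 steps. Five days later, one step fixed the cells and stained their nuclei (final 0.05% Triton X-100, 1% formaldehyde, 1 ug/ml Hoechst), and nuclei were counted on 4× images. Relative viability is the nuclei count in treated wells divided by the count in vehicle wells, and each value is the median of duplicate plates.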

Row | Cell Line | relative viability
1 | EPLC-272H | 0.444
2 | NCI-H23 | 0.821
3 | NCI-H1355 | 0.706
4 | NCI-H322M | 0.736
5 | NCI-H1437 | 0.891
6 | NCI-H1755 | 0.687
7 | NCI-H2085 | 0.551
8 | HCC-15 | 0.693
9 | NCI-H1793 | 0.641
10 | PC-3 [JPC-3] | 0.762
11 | EKVX | 0.662
12 | LC-2-ad | 0.836
13 | NCI-H1944 | 0.631
14 | NCI-H1975 | 0.817
15 | ABC-1 | 0.937
16 | NCI-H358 | 0.392
17 | RERF-LC-KJ | 0.803

Compound: CN1CCN(CC1)C2=CC(=C(C=C2)NC3=NC(=C(S3)C(=O)C4=C(C=CC=C4Cl)Cl)N)OC [XMD14-99] + NC(=O)Nc1cc(-c2cccc(F)c2)sc1C(=O)N[C@H]1CCCNC1 [AZD7762] (partner 0.2 µM)
Experiment: as above
Conditions: first compound 0.08 µM
Method in brief: as §1

Row | Cell Line | relative viability
18 | HCC-78 | 0.567
19 | NCI-H441 | 0.939
20 | LCLC-97TM1 | 0.346
21 | A-427 | 0.692
22 | NCI-H460 | 0.619
23 | NCI-H727 | 0.582
24 | NCI-H1734 | 0.487
25 | NCI-H2405 | 0.745
26 | NCI-H1395 | 0.387
27 | 201T | 0.529
28 | NCI-H1915 | 0.668
29 | HCC-827 | 0.227
30 | LXF-289 | 1.14
31 | NCI-H2347 | 0.814
32 | NCI-H650 | 1.05
33 | CAL-12T | 0.65
34 | NCI-H1651 | 0.429

Row | Cell Line | relative viability
35 | EPLC-272H | 0.165
36 | NCI-H23 | 0.284
37 | NCI-H1355 | 0.85
38 | NCI-H322M | 0.593
39 | NCI-H1437 | 1.18
40 | NCI-H1755 | 0.44
41 | NCI-H2085 | 0.95
42 | HCC-15 | 1.22
43 | NCI-H1793 | 0.512
44 | PC-3 [JPC-3] | 0.905
45 | EKVX | 0.654
46 | LC-2-ad | 0.869
47 | NCI-H1944 | 0.501
48 | NCI-H1975 | 0.743
49 | ABC-1 | 0.859
50 | NCI-H358 | 0.487
51 | RERF-LC-KJ | 0.902

Same assay, conditions: first compound 0.8 µM

Row | Cell Line | relative viability
52 | HCC-78 | 0.565
53 | NCI-H441 | 1.2
54 | LCLC-97TM1 | 0.293
55 | A-427 | 0.621
56 | NCI-H460 | 0.601
57 | NCI-H727 | 0.598
58 | NCI-H1734 | 0.513
59 | NCI-H2405 | 0.809
60 | NCI-H1395 | 0.462
61 | 201T | 0.598
62 | NCI-H1915 | 0.676
63 | HCC-827 | 0.202
64 | LXF-289 | 0.969
65 | NCI-H2347 | 0.725
66 | NCI-H650 | 1.06
67 | CAL-12T | 0.549
68 | NCI-H1651 | 0.466

Row | Cell Line | relative viability
69 | EPLC-272H | 0.207
70 | NCI-H23 | 0.312
71 | NCI-H1355 | 0.625
72 | NCI-H322M | 0.542
73 | NCI-H1437 | 1.05
74 | NCI-H1755 | 0.366
75 | NCI-H2085 | 0.914
76 | HCC-15 | 1.17
77 | NCI-H1793 | 0.298
78 | PC-3 [JPC-3] | 0.789
79 | EKVX | 0.692
80 | LC-2-ad | 0.872
81 | NCI-H1944 | 0.539
82 | NCI-H1975 | 0.745
83 | ABC-1 | 1.03
84 | NCI-H358 | 0.593
85 | RERF-LC-KJ | 1

Same assay, conditions: first compound 2.53 µM

Row | Cell Line | relative viability
86 | HCC-78 | 0.749
87 | NCI-H441 | 1.3
88 | LCLC-97TM1 | 0.303
89 | A-427 | 0.496
90 | NCI-H460 | 0.634
91 | NCI-H727 | 0.506
92 | NCI-H1734 | 0.459
93 | NCI-H2405 | 0.586
94 | NCI-H1395 | 0.363
95 | 201T | 0.583
96 | NCI-H1915 | 0.701
97 | HCC-827 | 0.203
98 | LXF-289 | 1.12
99 | NCI-H2347 | 0.673
100 | NCI-H650 | 1.16
101 | CAL-12T | 0.671
102 | NCI-H1651 | 0.444

Row | Cell Line | relative viability
103 | EPLC-272H | 0.254
104 | NCI-H23 | 0.25
105 | NCI-H1355 | 0.652
106 | NCI-H322M | 0.583
107 | NCI-H1437 | 0.991
108 | NCI-H1755 | 0.467
109 | NCI-H2085 | 0.881
110 | HCC-15 | 1.21
111 | NCI-H1793 | 0.389
112 | PC-3 [JPC-3] | 0.681
113 | EKVX | 0.651
114 | LC-2-ad | 0.889
115 | NCI-H1944 | 0.436
116 | NCI-H1975 | 0.717
117 | ABC-1 | 0.865
118 | NCI-H358 | 0.461
119 | RERF-LC-KJ | 0.86

Same assay, conditions: first compound 8 µM

Row | Cell Line | relative viability
120 | HCC-78 | 0.404
121 | NCI-H441 | 0.793
122 | LCLC-97TM1 | 0.227
123 | A-427 | 0.454
124 | NCI-H460 | 0.453
125 | NCI-H727 | 0.578
126 | NCI-H1734 | 0.51
127 | NCI-H2405 | 0.479
128 | NCI-H1395 | 0.38
129 | 201T | 0.607
130 | NCI-H1915 | 0.629
131 | HCC-827 | 0.191
132 | LXF-289 | 0.98
133 | NCI-H2347 | 0.505
134 | NCI-H650 | 0.851
135 | CAL-12T | 0.573
136 | NCI-H1651 | 0.46
137 | EPLC-272H | 0.433
138 | NCI-H23 | 0.188
139 | NCI-H1355 | 0.572
140 | NCI-H322M | 0.509
141 | NCI-H1437 | 0.719
142 | NCI-H1755 | 0.357
143 | NCI-H2085 | 0.72
144 | HCC-15 | 1.04
